Measured values from PubChem BioAssay AID1963971 (Molecular Pharmacology Branch, DTP, NCI, 2024).

System: 953936-095-R-J2-PDC spheroids with HUVEC/MSC, viability
Experiment: Anticancer human tumor 953936-095-R-J2-PDC patient-derived cervical squamous cell carcinoma cell line growth inhibition [PI3K]
Conditions: for IC50: curve of first compound; for viability, T/C: stronger effect = lower value
In short: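 Spheroid viability read-out. Co-cultures contained the tumor line plus HUVEC and human MSCs. Each agent was paired with a PI3K inhibitor (inavolisib, alpelisib, duvelisib, copanlisib) across half-log dilutions starting at clinical Cmax, or at 10 microM when Cmax was unknown.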
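Note: spheroids exposed to compounds for seven days before read-out.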

## CNC(=O)c1ccc(N2C(=S)N(c3ccc(C#N)c(C(F)(F)F)c3)C(=O)C2(C)C)cc1F + COc1c(OCCCN2CCOCC2)ccc2c3n(c(=NC(=O)c4cnc(N)nc4)nc12)CCN3
Second compound 0.00316 µM
  IC50: > 10000 nM
Second compound 0.01 µM
  IC50: > 10000 nM
Second compound 0.0316 µM
  IC50: < 31.6 nM
Second compound 0.1 µM
  IC50: < 31.6 nM
Second compound 0.316 µM
  IC50: < 31.6 nM
Second compound 1 µM
  IC50: < 31.6 nM
Second compound 0.00316 µM, first compound 0.0316 µM
  viability, T/C: 86.8%
Second compound 0.00316 µM, first compound 0.1 µM
  viability, T/C: 85%
Second compound 0.00316 µM, first compound 0.316 µM
  viability, T/C: 92%
Second compound 0.00316 µM, first compound 1 µM
  viability, T/C: 89.7%
Second compound 0.00316 µM, first compound 3.16 µM
  viability, T/C: 81.6%
Second compound 0.00316 µM, first compound 10 µM
  viability, T/C: 70%
Second compound 0.01 µM, first compound 0.0316 µM
  viability, T/C: 72.6%
Second compound 0.01 µM, first compound 0.1 µM
  viability, T/C: 72.3%
Second compound 0.01 µM, first compound 0.316 µM
  viability, T/C: 76.7%
Second compound 0.01 µM, first compound 1 µM
  viability, T/C: 66.6%
Second compound 0.01 µM, first compound 3.16 µM
  viability, T/C: 74.6%
Second compound 0.01 µM, first compound 10 µM
  viability, T/C: 63.9%
Second compound 0.0316 µM, first compound 0.0316 µM
  viability, T/C: 42.1%
Second compound 0.0316 µM, first compound 0.1 µM
  viability, T/C: 43%
Second compound 0.0316 µM, first compound 0.316 µM
  viability, T/C: 42.3%
Second compound 0.0316 µM, first compound 1 µM
  viability, T/C: 45.8%
Second compound 0.0316 µM, first compound 3.16 µM
  viability, T/C: 41.6%
Second compound 0.0316 µM, first compound 10 µM
  viability, T/C: 37.3%
Second compound 0.1 µM, first compound 0.0316 µM
  viability, T/C: 19.2%
Second compound 0.1 µM, first compound 0.1 µM
  viability, T/C: 18.7%
Second compound 0.1 µM, first compound 0.316 µM
  viability, T/C: 18.4%
Second compound 0.1 µM, first compound 1 µM
  viability, T/C: 18%
Second compound 0.1 µM, first compound 3.16 µM
  viability, T/C: 19.6%
Second compound 0.1 µM, first compound 10 µM
  viability, T/C: 17.2%
Second compound 0.316 µM, first compound 0.0316 µM
  viability, T/C: 6.13%
Second compound 0.316 µM, first compound 0.1 µM
  viability, T/C: 6.8%
Second compound 0.316 µM, first compound 0.316 µM
  viability, T/C: 6.44%
Second compound 0.316 µM, first compound 1 µM
  viability, T/C: 6.88%
Second compound 0.316 µM, first compound 3.16 µM
  viability, T/C: 8.06%
Second compound 0.316 µM, first compound 10 µM
  viability, T/C: 6.65%
Second compound 1 µM, first compound 0.0316 µM
  viability, T/C: 1.46%
Second compound 1 µM, first compound 0.1 µM
  viability, T/C: 1.67%
Second compound 1 µM, first compound 0.316 µM
  viability, T/C: 1.58%
Second compound 1 µM, first compound 1 µM
  viability, T/C: 1.92%
Second compound 1 µM, first compound 3.16 µM
  viability, T/C: 1.61%
Second compound 1 µM, first compound 10 µM
  viability, T/C: 1.49%

## Cn1cnc2c(F)c(Nc3ccc(Br)cc3Cl)c(C(=O)NOCCO)cc21 + COc1c(OCCCN2CCOCC2)ccc2c3n(c(=NC(=O)c4cnc(N)nc4)nc12)CCN3
Second compound 0.00316 µM
  IC50: 370 nM
Second compound 0.01 µM
  IC50: 81 nM
Second compound 0.0316 µM
  IC50: < 9.49 nM
Second compound 0.1 µM
  IC50: < 9.49 nM
Second compound 0.316 µM
  IC50: < 9.49 nM
Second compound 1 µM
  IC50: < 9.49 nM
Second compound 0.00316 µM, first compound 0.00949 µM
  viability, T/C: 65.8%
Second compound 0.00316 µM, first compound 0.03 µM
  viability, T/C: 69.6%
Second compound 0.00316 µM, first compound 0.0949 µM
  viability, T/C: 52%
Second compound 0.00316 µM, first compound 0.3 µM
  viability, T/C: 59.1%
Second compound 0.00316 µM, first compound 0.949 µM
  viability, T/C: 36.6%
Second compound 0.00316 µM, first compound 3 µM
  viability, T/C: 25.4%
Second compound 0.01 µM, first compound 0.00949 µM
  viability, T/C: 63.4%
Second compound 0.01 µM, first compound 0.03 µM
  viability, T/C: 58.8%
Second compound 0.01 µM, first compound 0.0949 µM
  viability, T/C: 45.9%
Second compound 0.01 µM, first compound 0.3 µM
  viability, T/C: 42.1%
Second compound 0.01 µM, first compound 0.949 µM
  viability, T/C: 26.2%
Second compound 0.01 µM, first compound 3 µM
  viability, T/C: 18.3%
Second compound 0.0316 µM, first compound 0.00949 µM
  viability, T/C: 36.7%
Second compound 0.0316 µM, first compound 0.03 µM
  viability, T/C: 33.1%
Second compound 0.0316 µM, first compound 0.0949 µM
  viability, T/C: 19.7%
Second compound 0.0316 µM, first compound 0.3 µM
  viability, T/C: 15.4%
Second compound 0.0316 µM, first compound 0.949 µM
  viability, T/C: 7.92%
Second compound 0.0316 µM, first compound 3 µM
  viability, T/C: 4.93%
Second compound 0.1 µM, first compound 0.00949 µM
  viability, T/C: 12.6%
Second compound 0.1 µM, first compound 0.03 µM
  viability, T/C: 8.91%
Second compound 0.1 µM, first compound 0.0949 µM
  viability, T/C: 5.78%
Second compound 0.1 µM, first compound 0.3 µM
  viability, T/C: 3.64%
Second compound 0.1 µM, first compound 0.949 µM
  viability, T/C: 2.7%
Second compound 0.1 µM, first compound 3 µM
  viability, T/C: 0.27%
Second compound 0.316 µM, first compound 0.00949 µM
  viability, T/C: 3.5%
Second compound 0.316 µM, first compound 0.03 µM
  viability, T/C: 2.08%
Second compound 0.316 µM, first compound 0.0949 µM
  viability, T/C: 1.09%
Second compound 0.316 µM, first compound 0.3 µM
  viability, T/C: 0.45%
Second compound 0.316 µM, first compound 0.949 µM
  viability, T/C: 0.15%
Second compound 0.316 µM, first compound 3 µM
  viability, T/C: 0.17%
Second compound 1 µM, first compound 0.00949 µM
  viability, T/C: 0.66%
Second compound 1 µM, first compound 0.03 µM
  viability, T/C: 0.31%
Second compound 1 µM, first compound 0.0949 µM
  viability, T/C: 0.21%
Second compound 1 µM, first compound 0.3 µM
  viability, T/C: 0.16%
Second compound 1 µM, first compound 0.949 µM
  viability, T/C: 0.15%
Second compound 1 µM, first compound 3 µM
  viability, T/C: 0.2%
